Assays:
[1] = target: MAP/microtubule affinity-regulating kinase 3 (Homo sapiens) (UniProt P27448); details: Compound concentration 1000.0 nM
[2] = target: Ankyrin repeat and protein kinase domain-containing protein 1 (Homo sapiens) (UniProt Q8NFD2); details: Compound concentration 1000.0 nM
[3] = target: Atypical kinase COQ8B, mitochondrial (Homo sapiens) (UniProt Q96D53); details: Compound concentration 1000.0 nM
[4] = target: Phosphatidylinositol 4-kinase beta (Homo sapiens) (UniProt Q9UBF8); details: Compound concentration 1000.0 nM
[5] = target: cGMP-dependent protein kinase 1 (Homo sapiens) (UniProt Q13976); details: Compound concentration 1000.0 nM
[6] = target: Serine/threonine-protein kinase SBK1 (Homo sapiens) (UniProt Q52WX2); details: Compound concentration 1000.0 nM
[7] = target: Proto-oncogene tyrosine-protein kinase Src (Homo sapiens) (UniProt P12931); details: Compound concentration 1000.0 nM
[8] = system: Phosphatidylinositol 4,5-bisphosphate 3-kinase catalytic subunit alpha isoform (Homo sapiens), P42336 [H1047Y]; details: Compound concentration 1000.0 nM
[9] = target: Dual specificity protein kinase TTK (Homo sapiens) (UniProt P33981); details: Compound concentration 1000.0 nM
[10] = target: Serine/threonine-protein kinase PknB (Mycobacterium tuberculosis) (UniProt P9WI81); details: Compound concentration 1000.0 nM
[11] = target: Mitogen-activated protein kinase kinase kinase 11 (Homo sapiens) (UniProt Q16584); details: Compound concentration 1000.0 nM
[12] = target: Serine/threonine-protein kinase Nek2 (Homo sapiens) (UniProt P51955); details: Compound concentration 1000.0 nM
[13] = target: Serine/threonine-protein kinase Nek6 (Homo sapiens) (UniProt Q9HC98); details: Compound concentration 1000.0 nM
[14] = target: Interleukin-1 receptor-associated kinase 1 (Homo sapiens) (UniProt P51617); details: Compound concentration 1000.0 nM
[15] = target: Serine/threonine-protein kinase PAK 3 (Homo sapiens) (UniProt O75914); details: Compound concentration 1000.0 nM
[16] = target: 5-hydroxytryptamine receptor 2B (Homo sapiens) (UniProt P41595); details: Compound concentration 10.0 uM
[17] = target: Wee1-like protein kinase 2 (Homo sapiens) (UniProt P0C1S8); details: Compound concentration 1000.0 nM
[18] = target: Mitogen-activated protein kinase kinase kinase kinase 1 (Homo sapiens) (UniProt Q92918); details: Compound concentration 1000.0 nM
[19] = target: Mitogen-activated protein kinase kinase kinase kinase 2 (Homo sapiens) (UniProt Q12851); details: Compound concentration 1000.0 nM
[20] = target: Casein kinase I isoform alpha-like (Homo sapiens) (UniProt Q8N752); details: Compound concentration 1000.0 nM
[21] = target: Discoidin domain-containing receptor 2 (Homo sapiens) (UniProt Q16832); details: Compound concentration 1000.0 nM
[22] = target: Casein kinase I isoform gamma-3 (Homo sapiens) (UniProt Q9Y6M4); details: Compound concentration 1000.0 nM
[23] = target: Protein-tyrosine kinase 6 (Homo sapiens) (UniProt Q13882); details: Compound concentration 1000.0 nM
[24] = system: Hepatocyte growth factor receptor (Homo sapiens), P08581 [M1250T]; details: Compound concentration 1000.0 nM
[25] = target: Macrophage-stimulating protein receptor (Homo sapiens) (UniProt Q04912); details: Compound concentration 1000.0 nM
[26] = target: Aurora kinase A (Homo sapiens) (UniProt O14965); details: Compound concentration 1000.0 nM
[27] = system: Hepatocyte growth factor receptor (Homo sapiens), P08581 [Y1235D]; details: Compound concentration 1000.0 nM
[28] = target: Mitogen-activated protein kinase 9 (Homo sapiens) (UniProt P45984); details: Compound concentration 1000.0 nM
[29] = target: Serine/threonine-protein kinase D3 (Homo sapiens) (UniProt O94806); details: Compound concentration 1000.0 nM
[30] = target: Cyclin-dependent kinase 4 (Homo sapiens) (UniProt P11802); details: Compound concentration 1000.0 nM
[31] = target: Mitogen-activated protein kinase kinase kinase 9 (Homo sapiens) (UniProt P80192); details: Compound concentration 1000.0 nM
[32] = target: Serine/threonine-protein kinase 38 (Homo sapiens) (UniProt Q15208); details: Compound concentration 1000.0 nM
[33] = target: Tyrosine-protein kinase Lck (Homo sapiens) (UniProt P06239); details: Compound concentration 1000.0 nM
[34] = target: Alpha-2C adrenergic receptor (Homo sapiens) (UniProt P18825); details: Compound concentration 10.0 uM
[35] = target: Ribosomal protein S6 kinase alpha-3 (Homo sapiens) (UniProt P51812); details: Compound concentration 1000.0 nM
[36] = target: Aurora kinase C (Homo sapiens) (UniProt Q9UQB9); details: Compound concentration 1000.0 nM
[37] = target: Tyrosine-protein kinase Srms (Homo sapiens) (UniProt Q9H3Y6); details: Compound concentration 1000.0 nM
[38] = target: Serine/threonine-protein kinase ULK3 (Homo sapiens) (UniProt Q6PHR2); details: Compound concentration 1000.0 nM
[39] = target: Beta-3 adrenergic receptor (Homo sapiens) (UniProt P13945); details: Compound concentration 10.0 uM
[40] = target: Serine/threonine-protein kinase STK11 (Homo sapiens) (UniProt Q15831); details: Compound concentration 1000.0 nM
[41] = target: Serine/threonine-protein kinase 3 (Homo sapiens) (UniProt Q13188); details: Compound concentration 1000.0 nM
[42] = target: Mitogen-activated protein kinase kinase kinase 7 (Homo sapiens) (UniProt O43318); details: Compound concentration 1000.0 nM
[43] = target: G protein-coupled receptor kinase 4 (Homo sapiens) (UniProt P32298); details: Compound concentration 1000.0 nM
[44] = target: Serine/threonine-protein kinase mTOR (Homo sapiens) (UniProt P42345); details: Compound concentration 1000.0 nM
[45] = target: Serine/threonine-protein kinase Nek5 (Homo sapiens) (UniProt Q6P3R8); details: Compound concentration 1000.0 nM

Chain of Serine/threonine-protein kinase D3 (Homo sapiens) (O94806 whole entry): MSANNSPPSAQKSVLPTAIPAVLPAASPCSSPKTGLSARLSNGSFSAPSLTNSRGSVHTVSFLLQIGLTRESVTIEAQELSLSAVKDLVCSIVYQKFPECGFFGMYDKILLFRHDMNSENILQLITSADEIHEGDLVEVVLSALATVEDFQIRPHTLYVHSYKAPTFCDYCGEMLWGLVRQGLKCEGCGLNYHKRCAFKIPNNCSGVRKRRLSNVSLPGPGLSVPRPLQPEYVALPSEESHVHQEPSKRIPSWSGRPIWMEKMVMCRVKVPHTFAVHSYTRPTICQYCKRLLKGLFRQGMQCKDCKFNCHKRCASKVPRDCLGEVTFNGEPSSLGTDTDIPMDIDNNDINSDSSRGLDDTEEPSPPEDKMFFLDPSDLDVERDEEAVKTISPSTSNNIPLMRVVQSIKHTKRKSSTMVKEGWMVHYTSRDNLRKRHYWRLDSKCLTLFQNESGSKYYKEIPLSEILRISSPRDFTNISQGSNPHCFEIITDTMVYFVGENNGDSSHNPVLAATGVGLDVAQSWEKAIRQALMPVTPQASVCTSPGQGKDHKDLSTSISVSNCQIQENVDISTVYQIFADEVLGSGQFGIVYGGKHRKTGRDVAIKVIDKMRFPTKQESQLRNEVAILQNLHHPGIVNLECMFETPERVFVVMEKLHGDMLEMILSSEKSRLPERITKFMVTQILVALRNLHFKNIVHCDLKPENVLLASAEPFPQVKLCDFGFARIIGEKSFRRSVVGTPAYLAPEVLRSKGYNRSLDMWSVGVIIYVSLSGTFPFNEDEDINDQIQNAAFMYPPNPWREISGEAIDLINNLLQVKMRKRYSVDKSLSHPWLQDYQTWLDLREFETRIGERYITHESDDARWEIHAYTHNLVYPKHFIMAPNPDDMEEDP
Chain of Wee1-like protein kinase 2 (Homo sapiens) (P0C1S8 whole entry, looked up): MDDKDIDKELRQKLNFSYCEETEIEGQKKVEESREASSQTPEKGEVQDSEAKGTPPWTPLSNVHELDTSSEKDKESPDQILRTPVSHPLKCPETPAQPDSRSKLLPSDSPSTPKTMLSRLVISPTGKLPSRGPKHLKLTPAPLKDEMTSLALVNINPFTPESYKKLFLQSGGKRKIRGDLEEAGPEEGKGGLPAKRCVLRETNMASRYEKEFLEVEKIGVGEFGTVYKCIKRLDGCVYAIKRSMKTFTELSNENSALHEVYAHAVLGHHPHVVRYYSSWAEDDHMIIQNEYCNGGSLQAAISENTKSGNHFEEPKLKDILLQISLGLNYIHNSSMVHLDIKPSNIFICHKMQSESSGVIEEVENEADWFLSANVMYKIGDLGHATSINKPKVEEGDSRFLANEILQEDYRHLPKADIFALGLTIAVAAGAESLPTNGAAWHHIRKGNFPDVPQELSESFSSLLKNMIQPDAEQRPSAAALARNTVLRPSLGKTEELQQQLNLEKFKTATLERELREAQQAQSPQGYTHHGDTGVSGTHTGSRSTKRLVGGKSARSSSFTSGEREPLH
Chain of Serine/threonine-protein kinase Nek6 (Homo sapiens) (Q9HC98 whole entry): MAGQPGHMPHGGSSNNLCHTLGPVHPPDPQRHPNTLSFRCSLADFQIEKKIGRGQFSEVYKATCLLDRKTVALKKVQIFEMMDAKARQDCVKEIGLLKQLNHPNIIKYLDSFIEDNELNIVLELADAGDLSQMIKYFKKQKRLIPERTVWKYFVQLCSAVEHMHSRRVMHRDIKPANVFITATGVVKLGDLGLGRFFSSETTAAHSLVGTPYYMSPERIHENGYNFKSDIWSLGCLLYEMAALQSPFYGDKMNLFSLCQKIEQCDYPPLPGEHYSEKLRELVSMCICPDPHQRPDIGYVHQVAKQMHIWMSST
Chain of Ribosomal protein S6 kinase alpha-3 (Homo sapiens) (P51812 whole entry): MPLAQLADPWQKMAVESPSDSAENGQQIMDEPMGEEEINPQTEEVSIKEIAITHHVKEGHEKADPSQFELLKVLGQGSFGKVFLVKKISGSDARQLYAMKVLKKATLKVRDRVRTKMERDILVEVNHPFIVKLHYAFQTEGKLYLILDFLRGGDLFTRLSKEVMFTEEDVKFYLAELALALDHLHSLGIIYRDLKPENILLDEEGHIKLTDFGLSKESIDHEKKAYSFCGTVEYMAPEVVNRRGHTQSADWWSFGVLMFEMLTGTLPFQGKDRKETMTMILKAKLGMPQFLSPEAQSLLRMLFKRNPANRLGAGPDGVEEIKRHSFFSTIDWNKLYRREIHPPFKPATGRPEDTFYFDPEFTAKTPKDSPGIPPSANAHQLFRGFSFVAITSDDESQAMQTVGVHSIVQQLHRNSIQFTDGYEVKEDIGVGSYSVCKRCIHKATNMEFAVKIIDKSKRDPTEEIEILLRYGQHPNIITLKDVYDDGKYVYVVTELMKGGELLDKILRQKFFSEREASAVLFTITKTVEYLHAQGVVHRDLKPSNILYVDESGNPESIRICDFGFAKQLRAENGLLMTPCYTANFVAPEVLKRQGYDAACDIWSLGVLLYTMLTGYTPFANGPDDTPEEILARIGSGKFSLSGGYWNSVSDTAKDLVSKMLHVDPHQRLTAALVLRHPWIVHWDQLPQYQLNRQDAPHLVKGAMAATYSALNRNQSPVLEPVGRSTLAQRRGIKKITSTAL
Chain of Mitogen-activated protein kinase kinase kinase 7 (Homo sapiens) (O43318 whole entry): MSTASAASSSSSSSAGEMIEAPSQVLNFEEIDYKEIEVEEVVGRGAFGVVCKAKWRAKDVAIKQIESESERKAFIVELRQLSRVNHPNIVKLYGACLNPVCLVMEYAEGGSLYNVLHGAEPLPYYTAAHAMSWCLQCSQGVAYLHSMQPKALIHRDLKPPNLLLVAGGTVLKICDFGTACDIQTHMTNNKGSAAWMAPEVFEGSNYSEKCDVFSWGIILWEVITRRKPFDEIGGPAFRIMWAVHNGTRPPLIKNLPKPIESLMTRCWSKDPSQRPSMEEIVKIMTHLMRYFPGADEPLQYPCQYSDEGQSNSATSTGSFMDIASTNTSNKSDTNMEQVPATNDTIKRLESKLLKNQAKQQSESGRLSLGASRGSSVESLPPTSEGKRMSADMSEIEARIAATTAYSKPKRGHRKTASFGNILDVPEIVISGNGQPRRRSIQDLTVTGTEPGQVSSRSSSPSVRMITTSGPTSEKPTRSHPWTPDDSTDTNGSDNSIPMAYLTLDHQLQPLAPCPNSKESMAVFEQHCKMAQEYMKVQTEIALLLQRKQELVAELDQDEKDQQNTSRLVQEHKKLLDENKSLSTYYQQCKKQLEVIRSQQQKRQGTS
Chain of 5-hydroxytryptamine receptor 2B (Homo sapiens) (P41595 whole entry): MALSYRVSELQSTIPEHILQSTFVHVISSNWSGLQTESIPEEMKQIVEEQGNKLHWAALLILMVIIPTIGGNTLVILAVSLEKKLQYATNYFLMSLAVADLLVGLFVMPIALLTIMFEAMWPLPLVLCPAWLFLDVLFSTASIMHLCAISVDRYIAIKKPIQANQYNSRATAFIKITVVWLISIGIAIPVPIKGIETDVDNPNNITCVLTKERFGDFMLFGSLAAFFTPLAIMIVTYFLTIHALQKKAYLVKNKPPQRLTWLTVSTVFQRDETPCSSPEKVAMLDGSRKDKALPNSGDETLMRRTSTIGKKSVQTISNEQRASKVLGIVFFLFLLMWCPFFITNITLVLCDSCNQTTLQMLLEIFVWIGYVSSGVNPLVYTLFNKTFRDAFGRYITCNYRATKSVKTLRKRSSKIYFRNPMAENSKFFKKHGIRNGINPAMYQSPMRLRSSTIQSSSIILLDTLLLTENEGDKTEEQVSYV
Chain of Dual specificity protein kinase TTK (Homo sapiens) (P33981 whole entry): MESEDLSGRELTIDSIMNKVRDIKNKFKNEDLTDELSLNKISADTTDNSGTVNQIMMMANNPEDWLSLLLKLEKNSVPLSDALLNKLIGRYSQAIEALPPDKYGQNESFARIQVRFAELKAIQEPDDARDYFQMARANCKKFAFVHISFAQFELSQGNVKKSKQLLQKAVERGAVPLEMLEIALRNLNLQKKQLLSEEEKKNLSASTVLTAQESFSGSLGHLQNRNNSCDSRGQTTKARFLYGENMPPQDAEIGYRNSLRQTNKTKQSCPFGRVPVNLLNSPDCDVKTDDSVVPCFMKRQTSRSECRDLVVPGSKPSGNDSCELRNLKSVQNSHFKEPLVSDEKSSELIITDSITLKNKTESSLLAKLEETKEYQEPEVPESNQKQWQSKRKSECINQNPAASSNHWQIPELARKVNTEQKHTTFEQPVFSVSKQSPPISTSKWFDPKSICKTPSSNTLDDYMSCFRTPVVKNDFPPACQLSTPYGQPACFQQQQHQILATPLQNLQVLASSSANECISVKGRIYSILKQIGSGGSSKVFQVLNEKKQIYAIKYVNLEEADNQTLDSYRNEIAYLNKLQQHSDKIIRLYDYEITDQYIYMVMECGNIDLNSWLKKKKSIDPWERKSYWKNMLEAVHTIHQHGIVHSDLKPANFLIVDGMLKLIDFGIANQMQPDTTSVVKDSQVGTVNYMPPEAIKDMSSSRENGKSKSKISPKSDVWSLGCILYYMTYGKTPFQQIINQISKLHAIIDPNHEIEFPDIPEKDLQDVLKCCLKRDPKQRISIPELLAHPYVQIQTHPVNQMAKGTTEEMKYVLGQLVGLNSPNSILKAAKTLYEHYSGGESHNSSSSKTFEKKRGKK
Chain of Serine/threonine-protein kinase 38 (Homo sapiens) (Q15208 2-465 limits assumed): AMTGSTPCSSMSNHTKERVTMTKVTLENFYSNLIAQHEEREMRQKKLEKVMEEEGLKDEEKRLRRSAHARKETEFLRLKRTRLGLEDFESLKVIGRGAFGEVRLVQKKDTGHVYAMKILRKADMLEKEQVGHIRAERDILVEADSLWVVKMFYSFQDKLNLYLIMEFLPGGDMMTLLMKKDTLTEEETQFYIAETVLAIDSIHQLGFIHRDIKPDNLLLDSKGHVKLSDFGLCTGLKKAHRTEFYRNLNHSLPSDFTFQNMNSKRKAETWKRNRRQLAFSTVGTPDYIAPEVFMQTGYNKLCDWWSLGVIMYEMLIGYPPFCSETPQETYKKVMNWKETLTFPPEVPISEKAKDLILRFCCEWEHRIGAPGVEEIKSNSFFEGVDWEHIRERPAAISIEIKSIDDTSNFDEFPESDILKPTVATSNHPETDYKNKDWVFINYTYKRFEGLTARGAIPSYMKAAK

CO[C@@H](C)c1c(Nc2ccc([C@@H](N(C)C(=O)C3CCS(=O)(=O)CC3)C(F)(F)F)cc2)cnc2cc(Cl)nn12 [NVS-MALT1-C]
inactive: residual activity [1] 100% | residual activity [2] 100% | residual activity [3] 96% | residual activity [4] 100% | residual activity [5] 92% | residual activity [6] 100% | residual activity [7] 98% | residual activity [8] 52% | residual activity [9] 100% | residual activity [10] 100% | residual activity [11] 85% | residual activity [12] 94% | residual activity [13] 100% | residual activity [14] 82% | residual activity [15] 100% | inhibition [16] 9.74% | residual activity [17] 100% | residual activity [18] 100% | residual activity [19] 100% | residual activity [20] 84% | residual activity [21] 100% | residual activity [22] 71% | residual activity [23] 100% | residual activity [24] 100% | residual activity [25] 100% | residual activity [26] 100% | residual activity [27] 85% | residual activity [28] 76% | residual activity [29] 93% | residual activity [30] 100% | residual activity [31] 81% | residual activity [32] 88% | residual activity [33] 84% | inhibition [34] 1.97% | residual activity [35] 100% | residual activity [36] 85% | residual activity [37] 100% | residual activity [38] 97% | inhibition [39] 12.9% | residual activity [40] 78% | residual activity [41] 100% | residual activity [42] 84% | residual activity [43] 100% | residual activity [44] 100% | residual activity [45] 88%

CO[C@@H](C)c1c(Nc2ccc([C@H](N(C)C(=O)C3CCS(=O)(=O)CC3)C(F)(F)F)cc2)cnc2cc(Cl)nn12 [NVS-MALT1]
inactive: residual activity [1] 100% | residual activity [2] 100% | residual activity [3] 77% | residual activity [4] 82% | residual activity [5] 85% | residual activity [6] 100% | residual activity [7] 99% | residual activity [8] 62% | residual activity [9] 77% | residual activity [10] 87% | residual activity [11] 79% | residual activity [12] 100% | residual activity [13] 97% | residual activity [14] 93% | residual activity [15] 100% | inhibition [16] -3.94% | residual activity [17] 88% | residual activity [18] 100% | residual activity [19] 100% | residual activity [20] 65% | residual activity [21] 100% | residual activity [22] 72% | residual activity [23] 81% | residual activity [24] 92% | residual activity [25] 100% | residual activity [26] 100% | residual activity [27] 100% | residual activity [28] 92% | residual activity [29] 85% | residual activity [30] 100% | residual activity [31] 100% | residual activity [32] 83% | residual activity [33] 83% | inhibition [34] 4.48% | residual activity [35] 100% | residual activity [36] 77% | residual activity [37] 95% | residual activity [38] 94% | inhibition [39] 15.4% | residual activity [40] 68% | residual activity [41] 92% | residual activity [42] 89% | residual activity [43] 85% | residual activity [44] 100% | residual activity [45] 84%

— ChEMBL document CHEMBL4507320, “Data for DCP probe NVS-MALT1” (2021)
